Holding throughout (assay type): cell-based
Assay [1] deals with Colo205 colon cancer cell line. The assay can be described thus: tumor cell proliferation test (EZ4U tetrazolium), Colo205. Particulars: for inhibition at 200 µg/mL / inhibition at 400 µg/mL / IC50: Homo sapiens; for inhibition at 200 µg/mL: Colo205, 200 μg/ml; for IC50: read-out: IC50 Colo205. The procedure: (§1) The compounds of the invention were tested using the pancreas tumor cell lines MIYPaCa2 and BxPC3, the breast cancer cell lines MDA-MB-435 and BT20, as well as the colon cancer cell lines Colo205 and HT29. The cells were placed in culture medium (RPMI-1640 with 10% fetal calf serum and 4 mM glutamine) in 96-well microtiter plates to make 10,000 cells per well. The inventive components to be tested were diluted in microtiter plates according to the well-known procedure and incubated for 4 days under cell culture conditions (37° C., 5% CO2).
(§2) Following incubation, the proliferation was tested using a tetrazolium-based EZ4U kit from Biomedica (Vienna, Austria). The optical density (OD) of each well was determined by means of an ELISA Reader, and the control medium obtained was set to 100% (OD490 nm=0.5 to 1.5). The values in Table 1 are given in %, showing the inhibition of cellular proliferation, the concentration being 400 μg/ml (higher value) and 200 μg/ml (lower value).
(§3) In further tests, substances were dissolved in water, and their effect on the colon adenocarcinoma cell line Colo205 and pancreas adenocarcinoma cell line BxPC3 as targets was tested. The results obtained, in IC50 concentrations in μg/ml, are illustrated in Table 2.
(§4) A proliferation test—as described above—with an initial dilution of 400 μg/ml was carried out, either alone or in combination with 400, 200 or 100 μg of CHP. The cell lines used are illustrated in Table 3. […] Frequently, the proliferation is increased, or the inhibition achieved with specific substances is lower when using combined agents. The effect of CHP alone is shown on the left in the table, below each specified cell line, for the highest concentration of CHP (400 μg/ml).
(§5) Furthermore, (R)-(+)-α,α-diphenyl-2-pyrrolidinemethanol and (S)-(−)-α,α-diphenyl-2-pyrrolidinemethanol were tested. […] The results are given as IC50 (μg/ml).

Assay [2] relates to BxPC3 pancreas tumor cell line. Nature of the assay: tumor cell proliferation test (EZ4U tetrazolium), BxPC3. To be noted: for inhibition at 200 µg/mL / inhibition at 400 µg/mL / IC50: Homo sapiens; for inhibition at 200 µg/mL / inhibition at 400 µg/mL: BXPC-3, 96 h, 4 days, read-out: inhibition of cellular proliferation; for inhibition at 200 µg/mL: BxPC3, 200 μg/ml; for inhibition at 400 µg/mL: BxPC3, 400 μg/ml; for IC50: BXPC-3, read-out: IC50 BxPC3. How it is done: as §1, §2, §3, §5

In assay [3] the test system is MIA-PaCa2 pancreas tumor cell line. Nature of the assay: tumor cell proliferation test (EZ4U tetrazolium), MIA-PaCa2. To be noted: Homo sapiens, MIA PaCa-2, 96 h, 4 days, read-out: inhibition of cellular proliferation; for inhibition at 200 µg/mL: MIA-PaCa2, 200 μg/ml; for inhibition at 400 µg/mL: MIA-PaCa2, 400 μg/ml. The procedure: as §1, §2, §5
For assay [4], the system named is MDA-MB435 breast cancer cell line. Nature of the assay: tumor cell proliferation test (EZ4U tetrazolium), MDA-MB435. To be noted: Homo sapiens, MDA-MB-435, 96 h, 4 days, read-out: inhibition of cellular proliferation; for inhibition at 200 µg/mL: MDA-MB435, 200 μg/ml; for inhibition at 400 µg/mL: MDA-MB435, 400 μg/ml. How it is done:
as §1, §2

In assay [5] the test system is BT20 breast cancer cell line. The assay can be described thus: tumor cell proliferation test (EZ4U tetrazolium), BT20. To be noted: Homo sapiens, BT-20, 96 h, 4 days, read-out: inhibition of cellular proliferation; for inhibition at 200 µg/mL: BT20, 200 μg/ml; for inhibition at 400 µg/mL: BT20, 400 μg/ml. The procedure:
as §1, §2

Assay [6] has as its system HT29 colon cancer cell line. The assay can be described thus: tumor cell proliferation test (EZ4U tetrazolium), HT29. Particulars: Homo sapiens, HT-29, 96 h, 4 days, read-out: inhibition of cellular proliferation; for inhibition at 200 µg/mL: HT29, 200 μg/ml; for inhibition at 400 µg/mL: HT29, 400 μg/ml. How it is done:
as §1, §2

The subject of assay [7] is T47D breast cancer cell line. The assay can be described thus: tumor cell proliferation test, T47D. How it is done: as §1, §2, §4, §5
The subject of assay [8] is SW620 colon cancer cell line. The assay can be described thus: tumor cell proliferation test, SW620. The procedure: as §1, §2, §4
Assay [9] has as its system all 6 cell lines (MIA-PaCa2, Colo205, BxPC3, MDA-MB435, BT20, HT29). Nature of the assay: tumor cell proliferation test, mean value for all 6 cell lines. Particulars: 400 μg/ml; read-out: inhibition; mean value±SEM for all 6 cell lines. How it is done: as §1, §2
The mark [10] stands for this setting: COLO 205, 96 h, 4 days, read-out: inhibition of cellular proliferation.
Where [11] appears, read: COLO 205, 96 h, Colo205, 400 μg/ml, 4 days, read-out: inhibition of cellular proliferation.
The mark [12] stands for this setting: COLO 205, substances dissolved in water.

Converted amounts (≈) assume the structure as drawn. Like-named read-outs stand apart in the source and are kept apart here. Where only a bound is given, the exact number is not on record here.

“4-hydroxy-1,1-dimethylproline isobutyl ester iodide [Substance A2-01]”: in assay [1] (substances dissolved in water), the “IC50 Colo205” value is above 400 µg/mL. Also, the “IC50 BxPC3” value in [2] (substances dissolved in water) amounted to 50 µg/mL.

As for `CN1CC(O)C[C@H]1C(=O)O` (stereo partly drawn) [Substance A0.21, 4-hydroxy-1-methylproline], the inhibition at 200 µg/mL is 21.1% in [3]; 21.1% in assay [1] (setting [10]); 21.9% in assay [2]; 26.9% in assay [4]; 18.3% in assay [5]; 4.8% in assay [6]. The inhibition at 400 µg/mL in [3] was 22.8%; in assay [1] (setting [11]) it was 16.3%; in assay [1] (COLO 205, Colo205, A0.21 400 μg/ml alone (Con), read-out: % inhibition of proliferation (minus signs)) it was 8.2%; in assay [2] it was 16.2%; in assay [4], 23.2%; in assay [5], 14.9%. In addition, the inhibition at 400 µg/mL in [6] worked out at 4.7%; in [7] (Homo sapiens, A0.21 400 μg/ml alone (Con), read-out: % inhibition of proliferation (minus signs)), 0.4%; in assay [8] (Homo sapiens, SW-620, A0.21 400 μg/ml alone (Con), read-out: % inhibition of proliferation (minus signs)), 5.2%; in assay [9] it was 16.3 ± 2.7%. In addition, the “% inhibition of proliferation (minus signs)” value in assay [1] (Colo205, A0.21 100 alone (Con)) is reported as −3.5%; in [1] (Colo205, A0.21 200 alone (Con)), −4.0%; in assay [7] (A0.21 100 alone (Con)), −1.8%; in [7] (A0.21 200 alone (Con)), −1.2%; in assay [8] (A0.21 100 alone (Con)), −5.8%; in assay [8] (A0.21 200 alone (Con)), −6.3%.

Take `CCOC(=O)C1CC(O)C[N+]1(C)C` (stereo not drawn) [Substance A1-01, 4-hydroxy-1,1-dimethylproline ethyl ester iodide]: the values for the half-maximal inhibitory concentration (IC50) in assay [1] (setting [12]) and in assay [2] (substances dissolved in water) were above 400 µg/mL and 70 µg/mL, respectively.

As for `CCOC(=O)[C@@H]1CC(O)CN1C` (stereo partly drawn) [Substance A1.21, 4-hydroxy-1-methylproline ethyl ester], the inhibition at 200 µg/mL in assay [3] turned out to be 7.4%; in [1] (setting [10]) it was 23.7%; in assay [2] it was 25%; in assay [4], 15.6%; in assay [5], 22.2%; in assay [6], 7.3%. In addition, the inhibition at 400 µg/mL was found to be 38.8% in [3]; 32.7% in assay [1] (setting [11]); 13.4% in assay [2]; 53.5% in [4]; 80.1% in [5]; 0.5% in assay [6]. In addition, the inhibition at 400 µg/mL in [9] was found to be 36.5 ± 11.4%.

As for `CCOC(=O)[C@@H]1CC(OC(=O)Nc2ccccc2)CN1C` (stereo partly drawn) [Substance A1.23, 1-methyl-4-phenylaminocarbonyloxyproline ethyl ester], the inhibition at 200 µg/mL stood at 16% in [3]; 17.2% in assay [1] (setting [10]); 17.8% in assay [2]; 8.7% in [4]; 4.4% in assay [5]; 8.5% in [6]. Besides, the inhibition at 400 µg/mL in assay [3] came to 8.3%; in assay [1] (setting [11]) it was 7.3%; in [2], 0%; in assay [4] it was 4.5%; in [5] it was 1.3%; in [6], 1.9%. The inhibition at 400 µg/mL in assay [9] was below 8%.

For `CC(C)COC(=O)[C@@H]1CC(O)CN1C1CCCCC1` (stereo partly drawn) [Substance A2-03, 4-hydroxy-1-cyclohexylproline isobutyl ester], the IC50 in assay [1] (setting [12]) stood at 50 µg/mL; in assay [2] (substances dissolved in water) it was 50 µg/mL (≈ 186 µM).

Take `Br.CC(C)COC(=O)[C@@H]1CC(O)CN1C(c1ccccc1)c1ccccc1` (stereo partly drawn) [Substance A2-04, 4-hydroxy-1-diphenylmethylproline isobutyl ester hydrobromide]: the half-inhibitory concentration (IC50) in assay [1] (setting [12]) stood at 6.2 µg/mL; in assay [2] (substances dissolved in water), 12 µg/mL.

`CC(C)COC(=O)[C@@H]1CC(O)CN1C` (stereo partly drawn) [Substance A2.21, 4-hydroxy-1-methylproline isobutyl ester]: the inhibition at 200 µg/mL in assay [3] is 4.5%; in [1] (setting [10]) it was 14.1%; in assay [2], 18.2%; in [4], 4.5%; in assay [5], 5.2%; in [6] it was 4.1%. In addition, the inhibition at 400 µg/mL was found to be 23.9% in assay [3]; 10% in [1] (setting [11]); 4.9% in assay [2]; 3.1% in assay [4]; 3.9% in assay [5]; 1.3% in assay [6]. The inhibition at 400 µg/mL in assay [9] was below 8%.

Take `CC(C)COC(=O)[C@@H]1CC(OC(=O)Nc2ccccc2)CN1C` (stereo partly drawn) [Substance A2.23, 1-methyl-4-phenylaminocarbonyloxyproline isobutyl ester]: the inhibition at 200 µg/mL in assay [3] is 14.2%; in assay [1] (setting [10]), 19.2%; in assay [2] it was 15.4%; in assay [4], 5.5%; in assay [5], 0%; in [6], -5%. Besides, the inhibition at 400 µg/mL in assay [3] was 0.3%; in assay [1] (setting [11]), 14.1%; in [2], 2.1%; in [4] it was 8.6%; in assay [5] it was 0%; in assay [6], -5.3%. For the same molecule, the inhibition at 400 µg/mL in assay [9] was below 8%.

As to `CCOC(=O)C1CC(O)CN1` [Substance A-1, cis-hydroxy-L-proline ethyl ester], the half-maximal inhibitory concentration (IC50) stood at 50 µg/mL in assay [1] (setting [12]) and 5 µg/mL (≈ 31.4 µM) in assay [2] (substances dissolved in water).

For the origin of these results see patent US20080176923A1, “Proline Derivatives Used as Pharmaceutical Active Ingredients for the Treatment of Tumors” (priority 2003, published 2008).
